Measurements reported in paper PMC3827032, “Functional Analysis of Hsp70 Inhibitors” (PLoS ONE, 2013).
Values belong to the molecule of their own block, whether it stands above or below them.

Legend:
Hsp70 [1] = biological target: T1, Hsp70 (Homo sapiens, UniProt P0DMV8); design: gene HSPA1A
Hsp70 [2] = biological target: T1, Hsp70; assay: crystal structure of NBD ([…] Å), ITC ([…]), SPR ([…]), DSC, ATPase inhibition (Ki […]; […] with Hdj1); assay type: binding; design: gene HSPA1A; full-length (ITC, SPR); NBD residues 1–382 (crystal structure)
Hsp70 [3] = biological target: T1, Hsp70; assay: ITC ([…]), SPR ([…]), DSC (Tm +[…]°C); assay type: binding; design: gene HSPA1A; full-length, nucleotide-free

T1 sequence (P0DMV8 2-641): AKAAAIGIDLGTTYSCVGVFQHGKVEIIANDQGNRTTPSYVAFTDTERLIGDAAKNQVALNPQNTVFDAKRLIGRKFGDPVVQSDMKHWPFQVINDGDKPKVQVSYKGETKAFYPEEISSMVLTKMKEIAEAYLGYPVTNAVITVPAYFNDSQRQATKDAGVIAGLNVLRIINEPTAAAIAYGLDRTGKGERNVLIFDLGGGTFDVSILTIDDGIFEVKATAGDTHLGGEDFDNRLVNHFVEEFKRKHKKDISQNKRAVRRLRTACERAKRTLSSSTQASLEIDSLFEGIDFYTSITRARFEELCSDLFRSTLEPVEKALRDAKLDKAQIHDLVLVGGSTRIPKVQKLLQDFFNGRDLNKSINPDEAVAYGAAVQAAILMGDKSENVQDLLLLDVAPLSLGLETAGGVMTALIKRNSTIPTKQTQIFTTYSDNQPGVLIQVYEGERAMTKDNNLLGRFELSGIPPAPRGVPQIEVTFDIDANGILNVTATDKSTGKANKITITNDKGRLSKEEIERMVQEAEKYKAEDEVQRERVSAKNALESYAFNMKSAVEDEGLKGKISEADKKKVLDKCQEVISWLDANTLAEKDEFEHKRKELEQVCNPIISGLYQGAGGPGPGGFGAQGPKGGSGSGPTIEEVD

SMILES: Nc1ncnc2c1ncn2[C@@H]1O[C@H](COP(=O)(O)OP(=O)(O)OP(=O)(O)O)[C@@H](O)[C@H]1O [ATP]
- Km (Hsp70 [1]): 9.9 ± 1.3 µM

- Kd (Hsp70 [2]): 228 ± 16 nM
SMILES: N#Cc1ccc(COC[C@H]2O[C@@H](n3c(NCc4ccc(Cl)c(Cl)c4)nc4c(N)ncnc43)[C@H](O)[C@@H]2O)cc1 [VER-155008]

- Kd (Hsp70 [3]): 7.7 ± 0.4 nM
SMILES: Nc1ncnc2c1ncn2[C@@H]1O[C@H](COP(=O)(O)OP(=O)(O)O)[C@@H](O)[C@H]1O [ADP]
